Residues, ends and D or L forms follow the SMILES beside them.
Tests used:
[1] = mouse, in vivo

CC[C@H](C)[C@H](NC(=O)[C@H](CC(C)C)NC(=O)[C@@H](NC(=O)CNC(=O)[C@@H](NC(=O)[C@H](CC(=O)O)NC(=O)[C@H](CC(=O)O)NC(=O)[C@H](CO)NC(=O)[C@@H](NC(=O)[C@H](Cc1ccccc1)NC(=O)[C@H](CO)NC(=O)[C@H](Cc1ccc(O)cc1)NC(=O)[C@H](CCSC)NC(=O)[C@H](CCC(N)=O)NC(=O)[C@@H]1CCCN1C(=O)[C@@H]1CCCN1C(=O)[C@H](CCCNC(=N)N)NC(=O)[C@H](CCCNC(=N)N)NC(=O)[C@H](CCCNC(=N)N)NC(=O)[C@H](CCC(N)=O)NC(=O)[C@H](CCCNC(=N)N)NC(=O)[C@H](CCCNC(=N)N)NC(=O)[C@H](CCCCN)NC(=O)[C@H](CCCCN)NC(=O)[C@H](CCCNC(=N)N)NC(=O)CN)C(C)C)[C@@H](C)O)[C@@H](C)O)C(=O)N[C@H](C(=O)N[C@@H](CC(N)=O)C(=O)N[C@@H](CO)C(=O)N[C@H](C(=O)N[C@@H](CC(C)C)C(=O)O)C(C)C)C(C)C [iPep-SARS2-E] (H-GRKKRRQRRRPPQMYSFVSDDTGTLIVNSVL-OH)
Body weight and inflammation markers Cxcl12 and C5a [1]: did not find any significant differences | Cellular toxicity (healthy, apoptotic, dead/necrotic cells) (Jurkat cells): does not cause cellular toxicity | IC50 (SARS-CoV-2 WA1 virus): ~400 nM

Reference: publication PMC10939250 (PLOS Biology, 2024)
